Laboratory results as given in patent publication US20080311168A1, “PROCESS FOR COMBATING ACARIDS” (RHODIA CHIMIE, priority 2002, published 2008).

Assays:
[1] = test system: dust mites (dermatophagoides pteronyssinus); assay: Regulation of a dust mite population by powders (derived from AFNOR NF G 39-011), Example 12; type: in vivo; settings: for Number of living acarids after 6 weeks, Mean: 5 g test powder + 5 g nutrient medium (food 1/NF G 39-011), 50 acarids placed, 4 repetitions; for CP (coefficient of regulation of the population of acarids), Mean: 6 weeks, versus sample without additive, 5 g test powder + 5 g nutrient medium, 0 = ineffective, 100 = eradication
Experimental: This characterization is carried out by a laboratory registered by the French Ministry of Agriculture, Fisheries and Food. The object is to evaluate the effectiveness of PA powders, to which ZnS may or may not have been added, on the regulation of the change in a population of dust mites (dermatophagoides pteronyssinus). Monitoring is carried out over two development cycles of the acarids, i.e. 6 weeks.
The acarids used originate from a laboratory strain raised on a substrate composed of a 50/50 (w/w) mixture of wheatgerm and of brewers yeast as specks graded by sieving (fragments of less than 1 mm). The temperature is between 23 and 25° C. and the relative humidity is maintained at 75% by the presence of a saturated ammonium sulphate solution. The screen is kept in darkness.
The screen is supplied by the Laboratoire des Insectes et Acariens des Denrees [Laboratory of the Insects and Acarids of Foodstuff] of the Institut National de Recherches Agronomiques (INRA) [National Institute of Agronomic Research] at Bordeaux, according to the AFNOR standard NF G 39-011.
The method is derived directly from the AFNOR standard NF G 39-011, with the following variations: • the experimental unit is composed of a chamber with a diameter of 8 cm which is escapeproof with regard to acarids but which allows ventilation and in which are found: • 5 g of nutrient medium (food 1/NF G 39-011 appendix) • 5 g of test powder, carpeting the bottom of the chamber • the study is carried out by placing 50 acarids in these devices • 4 repetitions are carried out on the same day per experimental factor, including for the control batches composed of the same device but without the addition of the powder. The result is expressed in the form of a mean and standard deviation with regard to these 4 samples.
The monitoring consists in counting the number of living acarids after the time period of 6 weeks. As direct counting is rendered impossible by the structure of the substrate, extraction by heat according to the recommendations of the AFNOR standard NF G 39-011 is used.
The criterion of effectiveness of an additive is then defined as the coefficient of regulation of the population of acarids (CP), i.e.:
The population counts are all carried out at 6 weeks.

[2] = test system: dust mites; assay: Preventive test: acarids deposited on fitted carpet treated beforehand with ZnS powder, Example 14; type: in vivo, dermatophagoides pteronyssinus
Experimental: (§1) The object of this study is to evaluate the effectiveness of a powder intended to be applied to floor coverings in a curative and/or preventive treatment for combating populations of dust mites.
(§2) This characterization is carried out in the same laboratory which carried out the test of Example 12. The source of the acarids is identical.
(§3) The test comprises two parts: • a curative test by deposition of the product on an existing population of acarids, • a preventive test with deposition of acarids on surfaces of fitted carpets treated beforehand with the product.
(§4) Monitoring is carried out over a period of at least two cycles, i.e. 6 weeks, and in comparison with a population not subjected to the product.
(§5) The experimental method is derived from the experimental context of the AFNOR standard NF G 39-011.
(§6) The experimental unit is composed of a chamber with a diameter of 8 cm which is escapeproof with regard to the acarids but which allows ventilation and in which are found: • a piece of short-pile polyamide fitted carpet as floor • 5 g of nutrient medium (dust+skin scales) • the corresponding dose of the test powder.
(§7) • the product is mixed with the food and sprinkled with a salt cellar over pieces of acarid-free fitted carpets • one month later, approximately 50 active acarids are placed on the treated fitted carpets • 4 repetitions are carried out as experimental factor, including for the control batches composed of the same device but without the product (same control as for the curative test) • the product is applied at the rate of 10, 40, 80 and 160 mg/m^2 • counting of the population of acarids is carried out after incubating for 6 weeks under optimum development conditions. The monitorings consist in counting the number of living acarids after the time period of 4 or 6 weeks of incubation. The method of counting the acarids and the calculation of the coefficient of regulation of the population of acarids (CP) are identical to Example 12.
(§8) The population counts on controlled and treated are all carried out at the same number of weeks.

[3] = test system: dust mites; assay: Curative test: ZnS powder deposited on fitted carpet holding an existing acarid population, Example 14; type: in vivo, dermatophagoides pteronyssinus
Experimental: as §1, §2, §3, §4, §5, §6
• approximately 50 active acarids are placed on the fitted carpets • the test product is mixed with the food and sprinkled with a salt cellar over the fitted carpet containing the acarids • 4 repetitions are carried out on the same day as experimental factor, including for the control batches composed of the same device but without the product • the product is applied at a rate of 160 mg/m^2 • 2 counts of the populations of acarids are carried out after incubating for 4 and 6 weeks under optimum development conditions.
as §7, §8

SMILES: [S-2].[Zn+2] [ZnS 2, ZnS]
- Number of living acarids after 6 weeks, Mean [1]: 305
- CP (coefficient of regulation of the population of acarids), Mean [1]: 65

SMILES: [S-2].[Zn+2] [ZnS 1, ZnS]
- CP 4 weeks, Mean ([2]; 10 mg/m^2, 4 weeks): 6
- CP 6 weeks, Mean ([2]; 10 mg/m^2, 6 weeks): 6
- Number of living acarids after 6 weeks, Mean ([2]; 10 mg/m^2, 6 weeks): 849
- Number of living acarids after 4 weeks, Mean ([2]; 10 mg/m^2, acarids placed one month after treatment, 4 weeks): 242
- CP 4 weeks, Mean ([2]; 40 mg/m^2, 4 weeks): 40
- Number of living acarids after 4 weeks, Mean ([2]; 40 mg/m^2, 4 weeks): 154
- CP 6 weeks, Mean ([2]; 40 mg/m^2, 6 weeks): 60
- Number of living acarids after 6 weeks, Mean ([2]; 40 mg/m^2, 6 weeks): 361
- CP 4 weeks, Mean ([2]; 80 mg/m^2, 4 weeks): 45
- Number of living acarids after 4 weeks, Mean ([2]; 80 mg/m^2, 4 weeks): 142
- CP 6 weeks, Mean ([2]; 80 mg/m^2, 6 weeks): 65
- Number of living acarids after 6 weeks, Mean ([2]; 80 mg/m^2, 6 weeks): 315
- CP 4 weeks, Mean ([2]; 160 mg/m^2, 4 weeks): 52
- Number of living acarids after 4 weeks, Mean ([2]; 160 mg/m^2, 4 weeks): 123
- CP 6 weeks, Mean ([2]; 160 mg/m^2, 6 weeks): 68
- Number of living acarids after 6 weeks, Mean ([2]; 160 mg/m^2, 6 weeks): 290
- Number of living acarids after 4 weeks, Mean ([3]; 160 mg/m^2, 4 weeks incubation): 148
- CP 4 weeks, Mean ([3]; 160 mg/m^2, 4 weeks, versus untreated carpet): 42
- Number of living acarids after 6 weeks, Mean ([3]; 160 mg/m^2, 6 weeks incubation): 284
- CP 6 weeks, Mean ([3]; 160 mg/m^2, 6 weeks, versus untreated carpet): 69
- Number of living acarids after 6 weeks, Mean [1]: 318
- CP (coefficient of regulation of the population of acarids), Mean [1]: 63
